# Data from the supplement of paper PMC10307832.
# How the values were obtained:
# Experiment in all cases: relative viability (nuclei count vs DMSO), 5 days (fraction); higher = more cells survive
# [1] = compound: C1CC1C(=O)NC2=NNC3=C2C=CC(=C3)C4=CC(=CC=C4)C(=O)NC5CC5 [XMD13-2] + CC(=O)c1c(C)c2cnc(Nc3ccc(N4CCNCC4)cn3)nc2n(C2CCCC2)c1=O [Palbociclib] (partner 0.5 µM)
# Outline: (§1)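 Relative viability equals treated-well nuclei counts divided by vehicle-well nuclei counts. Counts came from 4× images of lung cancer cell lines grown in 1536-well plates for 5 days after pin-tool dosing on the day after seeding. Dosing used one drug alone or a fixed anchor-drug dose plus five library-drug doses (not always all listed) in √10 steps, and values are medians of duplicate plates.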
# [2] = compound: Cc1ccc(C(=O)Nc2cccc(C(F)(F)F)c2)cc1Nc1cncc(C(N)=O)c1 [ALW-II-49-7] + COc1cc2c(Oc3ccc(NC(=O)C4(C(=O)Nc5ccc(F)cc5)CC4)cc3F)ccnc2cc1OCCCN1CCOCC1 [Foretinib] (partner 0.25 µM)
# Outline: as §1
# [3] = compound: Cc1nc(Nc2ncc(C(=O)Nc3c(C)cccc3Cl)s2)cc(N2CCN(CCO)CC2)n1 [Dasatinib] + C[C@@H](Oc1cc(-c2cnn(C3CCNCC3)c2)cnc1N)c1c(Cl)ccc(F)c1Cl [Crizotinib] (partner 1 µM)
# Outline: as §1
# [4] = compound: C1CC1C(=O)NC2=NNC3=C2C=CC(=C3)C4=CC(=CC=C4)C(=O)NC5CC5 [XMD13-2] + Nc1ncn([C@H]2C[C@H](O)[C@@H](CO)O2)c(=O)n1 [Decitabine] (partner 2 µM)
# Outline: as §1
Cell Line,relative viability ([1]; first compound 0.05 µM),relative viability ([1]; first compound 0.1581 µM),relative viability ([1]; first compound 0.5 µM),relative viability ([1]; first compound 1.581 µM),relative viability ([1]; first compound 5 µM),relative viability ([2]; first compound 0.08 µM),relative viability ([2]; first compound 0.253 µM),relative viability ([2]; first compound 0.8 µM),relative viability ([2]; first compound 2.53 µM),relative viability ([2]; first compound 8 µM),relative viability ([3]; first compound 0.005 µM),relative viability ([3]; first compound 0.01581 µM),relative viability ([3]; first compound 0.05 µM),relative viability ([3]; first compound 0.1581 µM),relative viability ([3]; first compound 0.5 µM),relative viability ([4]; first compound 0.05 µM),relative viability ([4]; first compound 0.1581 µM),relative viability ([4]; first compound 0.5 µM),relative viability ([4]; first compound 1.581 µM),relative viability ([4]; first compound 5 µM)
NCI-H1355,0.442,0.365,0.42,0.398,0.425,1.05,0.895,0.969,0.887,1.02,1.04,0.781,0.983,0.585,0.443,0.358,0.385,0.386,0.379,0.375
NCI-H1437,0.297,0.299,0.335,0.327,0.255,1.35,1.26,1.2,1.26,1.16,0.868,0.894,1.1,0.79,0.251,0.604,0.569,0.541,0.55,0.578
NCI-H1650,0.29,0.399,0.385,0.332,0.312,1.04,1.18,1.08,1.05,1.13,0.801,0.619,0.456,0.303,0.239,0.363,0.457,0.413,0.409,0.52
NCI-H1651,0.543,0.507,0.508,0.527,0.503,0.989,0.631,0.953,0.678,0.852,0.874,0.776,0.841,0.768,0.704,0.642,0.642,0.63,0.609,0.81
NCI-H1666,0.629,0.685,0.67,0.665,0.675,0.954,0.887,0.964,1.05,1.05,1.01,0.878,0.783,0.561,0.247,0.738,0.734,0.689,0.666,0.735
NCI-H1734,0.413,0.332,0.361,0.358,0.297,0.958,0.91,0.871,0.741,0.799,0.553,0.485,0.515,0.301,0.35,0.529,0.484,0.561,0.487,0.528
NCI-H1755,0.468,0.444,0.457,0.474,0.409,0.875,1.06,0.807,0.931,0.825,0.696,0.657,0.365,0.202,0.174,0.703,0.719,0.665,0.736,0.667
NCI-H1915,0.56,0.509,0.529,0.481,0.509,1.17,1.07,1.06,0.864,0.816,0.828,0.764,0.638,0.284,0.24,0.261,0.268,0.251,0.256,0.268
NCI-H1944,0.323,0.312,0.325,0.351,0.322,0.997,0.801,0.964,0.846,0.954,1.06,0.847,0.779,0.327,0.233,0.438,0.436,0.493,0.474,0.482
NCI-H1975,0.77,0.607,0.538,0.678,0.61,0.918,1.05,1,0.909,0.891,0.858,0.852,0.612,0.404,0.272,0.373,0.381,0.412,0.414,0.333
NCI-H1993,0.641,0.484,0.722,0.606,0.547,0.7,0.852,0.797,0.756,0.892,0.881,0.658,0.579,0.501,0.465,0.625,0.552,0.663,0.632,0.669
NCI-H2009,0.244,0.229,0.215,0.204,0.153,1.18,1.31,1.17,0.895,1.11,0.947,0.936,0.684,0.314,0.141,0.372,0.394,0.427,0.449,0.387
NCI-H2023,0.436,0.373,0.439,0.328,0.363,0.841,1.02,0.966,1.02,1.09,0.491,0.492,0.376,0.281,0.26,0.255,0.214,0.215,0.22,0.195
NCI-H2085,0.488,0.477,0.481,0.429,0.472,1.08,0.876,0.989,1.06,1.02,0.93,0.806,0.408,0.193,0.158,0.622,0.525,0.593,0.51,0.563
NCI-H2087,0.248,0.261,0.184,0.184,0.258,1.22,1.12,1.09,1.08,1.04,0.858,0.938,0.946,0.863,0.639,0.322,0.291,0.344,0.26,0.279
NCI-H2126,0.385,0.398,0.309,0.336,0.323,0.805,0.998,1.21,0.998,1.11,0.966,0.9,0.915,0.607,0.369,0.598,0.56,0.545,0.539,0.619
NCI-H2170,0.392,0.4,0.399,0.407,0.319,0.908,1.12,1.01,0.999,1.01,1.1,0.94,0.84,0.547,0.523,0.507,0.466,0.506,0.459,0.43
NCI-H2347,0.471,0.424,0.465,0.382,0.471,1.1,1.04,0.906,0.227,0.844,0.316,0.397,0.355,0.301,0.369,0.599,0.565,0.652,0.566,0.65
NCI-H2405,0.545,0.529,0.474,–,0.518,1.03,1.06,0.998,0.847,0.895,0.698,0.568,0.493,0.258,0.194,0.796,0.731,0.73,–,0.673
NCI-H3122,0.191,0.202,0.142,0.177,0.181,1.06,0.978,0.96,1.03,0.931,0.261,0.332,0.347,0.253,0.223,0.403,0.439,0.414,0.372,0.395
PC-3 [JPC-3],0.558,0.508,0.571,–,0.532,0.995,1.09,1.01,1.01,1.02,0.996,0.986,1.11,0.955,0.63,0.794,0.892,0.851,–,0.842
PC-14,0.597,0.526,0.517,0.586,0.568,0.935,0.634,0.841,0.924,0.89,0.94,0.975,0.855,0.448,0.113,0.239,0.229,0.188,0.193,0.254
RERF-LC-KJ,1.06,1.11,1.1,1.04,1.03,0.84,0.874,0.941,0.933,0.902,0.839,0.977,0.832,0.75,0.764,0.813,0.747,0.711,0.702,0.713
SK-LU-1,0.42,0.393,0.38,0.378,0.319,0.894,0.895,0.923,0.797,0.592,0.558,0.417,0.35,0.251,0.251,0.569,0.601,0.746,0.616,0.628
SK-MES-1,0.308,0.312,0.304,0.329,0.326,0.834,0.687,0.737,0.977,0.831,0.968,0.937,0.93,0.372,0.212,0.429,0.409,0.373,0.339,0.455
SW 1573,0.442,0.366,0.717,0.371,0.287,0.92,0.729,0.945,1.19,1.02,0.826,0.689,0.624,0.429,0.356,0.775,0.464,0.608,0.498,0.431
